Data reported in PubChem BioAssay AID1919013 (Molecular Pharmacology Branch, DTP, NCI, 2023).

Test system: LG0703-F498-PDC complex spheroid growth
Experiment: Anticancer human tumor LG0703-F498-PDC patient-derived lung adenocarcinoma cell line growth inhibition [AhR]
Conditions: for IC50: curve of first compound; for viability, T/C: stronger effect = lower value
Method in brief: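 Spheroids combined tumor cells with HUVEC endothelial cells and human MSCs as stroma. AhR antagonists were paired with standard or investigational drugs, each dosed in half-log steps down from near clinical Cmax, or from 10 microM where Cmax was unknown.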
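Also: luminescence taken as a proxy for viable cell amount.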
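For viability, T/C in this document: percent of DMSO vehicle control where 100% means growth equal to vehicle.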

Which results are given for CCc1c2c(nc3ccc(O)cc13)-c1cc3c(c(=O)n1C2)COC(=O)[C@]3(O)CC + Cc1ccccc1N=Nc1ccc(NC(=O)c2ccnn2C)c(C)c1?
IC50 (second compound 0.1 µM): 49.4 nM; IC50 (second compound 0.316 µM): 43.3 nM; IC50 (second compound 1 µM): 30.7 nM; IC50 (second compound 3.16 µM): 23.9 nM; IC50 (second compound 10 µM): 37.1 nM; viability, T/C (second compound 0.1 µM, first compound 0.000949 µM): 79.1%; viability, T/C (second compound 0.1 µM, first compound 0.003 µM): 92.9%; viability, T/C (second compound 0.1 µM, first compound 0.00949 µM): 77.1%; viability, T/C (second compound 0.1 µM, first compound 0.03 µM): 56.8%; viability, T/C (second compound 0.1 µM, first compound 0.0949 µM): 41.5%; viability, T/C (second compound 0.1 µM, first compound 0.3 µM): 29.2%; viability, T/C (second compound 0.316 µM, first compound 0.000949 µM): 98.5%; viability, T/C (second compound 0.316 µM, first compound 0.003 µM): 94.6%; viability, T/C (second compound 0.316 µM, first compound 0.00949 µM): 75.8%; viability, T/C (second compound 0.316 µM, first compound 0.03 µM): 57.9%; viability, T/C (second compound 0.316 µM, first compound 0.0949 µM): 35.6%; viability, T/C (second compound 0.316 µM, first compound 0.3 µM): 24.9%; viability, T/C (second compound 1 µM, first compound 0.000949 µM): 86.5%; viability, T/C (second compound 1 µM, first compound 0.003 µM): 79.7%; viability, T/C (second compound 1 µM, first compound 0.00949 µM): 69.2%; viability, T/C (second compound 1 µM, first compound 0.03 µM): 48.4%; viability, T/C (second compound 1 µM, first compound 0.0949 µM): 36.3%; viability, T/C (second compound 1 µM, first compound 0.3 µM): 24.5%; viability, T/C (second compound 3.16 µM, first compound 0.000949 µM): 93.9%; viability, T/C (second compound 3.16 µM, first compound 0.003 µM): 83.3%; viability, T/C (second compound 3.16 µM, first compound 0.00949 µM): 64.3%; viability, T/C (second compound 3.16 µM, first compound 0.03 µM): 45%; viability, T/C (second compound 3.16 µM, first compound 0.0949 µM): 34.1%; viability, T/C (second compound 3.16 µM, first compound 0.3 µM): 21.7%; viability, T/C (second compound 10 µM, first compound 0.000949 µM): 65.8%; viability, T/C (second compound 10 µM, first compound 0.003 µM): 79%; viability, T/C (second compound 10 µM, first compound 0.00949 µM): 69.1%; viability, T/C (second compound 10 µM, first compound 0.03 µM): 51.7%; viability, T/C (second compound 10 µM, first compound 0.0949 µM): 35.8%; viability, T/C (second compound 10 µM, first compound 0.3 µM): 24.7%
